Test [1] relates to M1 cells. The test is described as follows: Protein tyrosine phosphorylation after anti-gp130 immunoprecipitation. Format: cell-based. The note with it: M1 cells treated with CLC or LIF supernatant; band of apparent molecular mass 32 kDa. The procedure:
Because of the wide range of known factors capable of stimulating tyrosine kinase activity, identifying whether CLC or a molecule induced by CLC is capable of activating tyrosine kinase signal transduction pathways is of interest. Therefore, the following protocol is designed to identify such molecules capable of activating the tyrosine kinase signal transduction pathways.
Seed NIH-3T3 cells in 15 cm^2 cell culture plates in DMEM supplemented with Pen/Strep, 10% FBS, 25 mM Hepes. […] At the point the experiment begins, the cells should be 80-90% confluent. Collect M1 cells in 50 ml tube and centrifuge 1000 rpm for 5 min. Resuspend the cell pellet in “quiescing medium” which is RPMI supplemented with Pen/Strep, glutamine. (It is important to note that quiescing medium contains neither serum nor growth factors.) Centrifuge again at 1000 rpm for 5 min to wash the cells. Again, resuspend the cells in quiescing medium. Incubate the M1 cells in quiescing medium for 16 hours at 37° C.
Pre-warm quiescing medium (for Ml cells) and a metal tube rack to 37° C. Pre-cool quiescing media (for NIH-3T3 cells) and sterile Eppendorf tubes containing 0.5 ml of sample. […] Resuspend M1 cells to 5.0×10^7 cells per 0.5 ml quiescing media. Place all tubes on per warmed metal rack and leave at 37° C. until ready to begin. Add samples to these pre-aliquoted tubes. […]

The subject of test [2] is M1 cells. In words: M1 cell proliferation by BrdU incorporation. Format: cell-based. The note with it: dose of 100 μL, 72 hours. The procedure:
The effect of CLC on cellular proliferation can be assayed in M1 cells by BrdU incorporation. 1×10^4 cells/100 μL are dispensed into 96-well cell culture plates and labeled with 10 μL BrdU. CLC is added to the cells at several doses (0, 5, 25, and 100 μL) and LIF is added to the cells as a positive control at a dose of 100 μL. The cells are allowed to grow for 72 hours at 37° C. The amount of BrdU incorporation is determined by the Cell Proliferation ELISA BrdU colorimetric kit (Boehringer Mannheim).
(Uptake of a labelled nucleoside into DNA is a usual measure of proliferation.)

A further test relates to STATS. The note with it: numbers of the STATs activated; adapted from Schidler and Darnell review; cited from earlier work.
The test system of the next test is Jurkat T-cells. In words: Jurkat:GAS-SEAP screening assay for T-cell activity. Type of test: cell-based. The note with it: 100 Unit/ml, typically observed. The procedure:
The following protocol is used to assess T-cell activity of CLC by determining whether CLC supernatant proliferates and/or differentiates T-cells. T-cell activity is assessed using the GAS/SEAP/Neo construct produced in Example 6. Thus, factors that increase SEAP activity indicate the ability to activate the Jaks-STATs signal transduction pathway. The T-cell used in this assay is Jurkat T-cells (ATCC Accession No. TIB-152), although Molt-3 cells (ATCC Accession No. CRL-1552) and Molt-4 cells (ATCC Accession No. CRL-1582) cells can also be used.
Jurkat T-cells are lymphoblastic CD4+ Th1 helper cells. In order to generate stable cell lines, approximately 2 million Jurkat cells are transfected with the GAS-SEAP/neo vector using DMRIE-C (Life Technologies; transfection procedure described below). The transfected cells are seeded to a density of approximately 20,000 cells per well and transfectants resistant to 1 mg/ml geneticin selected. Resistant colonies are expanded and then tested for their response to increasing concentrations of interferon gamma.
Specifically, the following protocol will yield sufficient cells for 75 wells containing 200 μl of cells. Thus, it is either scaled up, or performed in multiple to generate sufficient cells for multiple 96 well plates. Jurkat cells are maintained in RPMI+10% serum with 1% Pen-Strep. […]

The subject of a further test is U937 cells. In words: GAS-SEAP/U937 assay identifying myeloid activity. Type of test: cell-based. The note with it: 100 Unit/ml; U937 GAS-SEAP; typically observed. Here is the method:
The following protocol is used to assess myeloid activity of CLC by determining whether CLC proliferates and/or differentiates myeloid cells. Myeloid cell activity is assessed using the GAS/SEAP/Neo construct produced in Example 6. Thus, factors that increase SEAP activity indicate the ability to activate the Jaks-STATS signal transduction pathway. The myeloid cell used in this assay is U937, a pre-monocyte cell line, although TF-1, HL60, or KG1 can be used.
To transiently transfect U937 cells with the GAS/SEAP/Neo construct produced in Example 6, a DEAE-Dextran method (Kharbanda, et. al., Cell Growth & Differentiation 5:259-265 (1994)) is used. First, harvest 2×10^7 U937 cells and wash with PBS. The U937 cells are usually grown in RPMI 1640 medium containing 10% heat-inactivated fetal bovine serum (FBS) supplemented with 100 units/ml penicillin and […] streptomycin.
Next, suspend the cells in 1 ml of 20 mM Tris-HCl (pH 7.4) buffer containing 0.5 mg/ml DEAE-Dextran, 8 ug GAS-SEAP2 plasmid DNA, 140 mM NaCl, 5 mM KCl, 375 μM Na2HPO47H2O, […], and 675 μM CaCl2. Incubate at 37° C. for 45 min.
Wash the cells with RPMI 1640 medium containing 10% FBS and then resuspend in 10 ml complete medium and incubate at 37° C. for 36 hr.
The GAS-SEAP/U937 stable cells are obtained by growing the cells in 400 μg/ml G418. […]

The next test has as its system GAS or ISRE. The note with it: element bound; adapted from Schidler and Darnell review; cited from earlier work.

The values that follow come from patent US20030087395A1, “Cardiotrophin-like cytokine” (Human Genome Sciences, Inc., priority 1997, published 2003).

As for “LIF: leukemia inhibitory factor, IL-6 family cytokine used as positive control for CLC [reference compound]”, the “band of tyrosine-phosphorylated protein in cell extracts” value in the test on M1 cells [1] was “produced a band of phosphorylated protein”. Further, in the test with M1 cells [2], the “inhibition of M1 cell proliferation with respect to the negative control” value came out at 4.8 fold. For the same substance, the STATS in the test on STATS was 1,3.
Regarding “interferon gamma: positive control known to activate Jurkat T cells and U937 cells [reference compound]”, the “induction of SEAP in positive control wells” value in the test on Jurkat T-cells and in the test with U937 cells was “Over 30 fold” throughout. Moreover, the STATS in the test on STATS was 1. In the test with GAS or ISRE, the “GAS or ISRE” value is reported as “GAS”.
